Source: patent publication US20100159030A1, “METHODS FOR DETECTING AND MODULATING THE SENSITIVITY OF TUMOR CELLS TO ANTI-MITOTIC AGENTS AND FOR MODULATING TURMORGENICITY” (NewSouth Innovations Pty Limited, priority 2007, published 2010)
Counter-ions that a name gives are not always drawn. Like-named read-outs stand apart in the source and are kept apart here.

Key:
[1] = system: NSCLC H460 cells; experiment: Drug-treated clonogenic assay (surviving fraction, ID50) on siRNA/shRNA-transfected cells; format: cell-based, Human; conditions: for change in drug sensitivity (clonogenic survival): H460; for IC50: Homo sapiens; for RS (relative sensitivity): Table 2
Experimental: (§1) Cells were transfected for 24 h and approximately 600 cells (for Calu-6) or 150 cells (for H460) were seeded into each well of a 6-well plate and allowed to attach for 4-6 h. The cell lines used in this study were not subject to prior drug selection, and are likely to represent intrinsic drug resistance observed in lung carcinoma.
(§2) Cells were then treated with increasing concentrations of various anti-mitotic drugs. Following a 3-day incubation at 37° C., the drug-containing medium was removed and replaced with fresh complete medium. Medium was changed at 3-4 day intervals for 7 to 10 days until visible colonies formed. […] Surviving colonies were simultaneously fixed and stained with 0.5% crystal violet in methanol, rinsed with water to remove excess stain and air-dried overnight.
(§3) The colonies in each well were manually counted, and the results were presented as surviving fraction according to the formula: surviving fraction was calculated as follows: colony number/(number of cells seeded×plating efficiency), where plating efficiency is equivalent to the colony number divided by the number of cells seeded in the drug-free medium. Dose-response curves were plotted for each drug-cell line combination and inhibitory dose (ID50) values were extrapolated from this curve using GraphPad Prism program (GraphPad Software, version 4, San Diego, Calif.). ID50 was defined as the concentration of the drug required to reduce the number of colonies in drug-treated wells to 50% of that of the relevant untreated control wells. The ID50 values were the means of at least four independent experiments.
(§4) To quantitate any change in drug sensitivity, drug treated clonogenic assays were performed. Twenty-four hours after siRNA transfection, cells were harvested and plated into 6-well plates for 6 h, prior to the addition of various drugs as indicated in the figure legends. After 72 h incubation, the drug-containing media was removed and replaced with complete growth media. Medium was changed every 3 days for 7 to 10 days until visible colonies formed. Colonies were simultaneously fixed and stained with 0.5% crystal violet in methanol, and manually counted. Individual stained colonies in each well were counted and the surviving fraction was calculated as follows: colony number/(number of cells seeded×plating efficiency), where plating efficiency equals the colony number divided by the number of cells seeded in drug-free media.

[2] = system: H460 cells; experiment: Cell cycle analysis by flow cytometry (propidium iodide); format: cell-based, Human; conditions: 24 h
Experimental: The distribution of DNA content in βII or βIVb tubulin siRNA-transfected H460 cells was determined by flow cytometry. After 72 h transfection, transfected cells were exposed to vincristine at 5 nM or 40 nM concentrations for 24 h. On the day of analysis, both adherent and floating cells were harvested, washed with PBS and then stained with a solution containing 0.4% Triton® X-100 (Sigma), 50 μg/ml propidium iodide (Sigma), and 2 μg/ml DNase-free RNase (Roche, Indianapolis, Ind.) in the dark for 15 min at 37′C. DNA content was measured by a FACSCalibur flow cytometer (Becton Dickinson, San Diego, Calif.). The flow rate was <200 nuclei per second and 10,000 cells from each sample were analysed. Measurements were performed under the same instrumental settings. The CellQuest® program was used to quantitate the distribution of cells in each cell cycle phase: sub-G1 (apoptotic cells), G1, S and G2/M.
To determine whether βIII-tubulin silencing affects the cell cycle profiles, cell cycle analysis using flow cytometry was performed. Cell cycle analysis was determined by transfecting H460 cells with siRNA for 72 h and harvesting (adherent and suspension) cells 24 h after drug treatment. DNA content was stained for 15 min at 37° C. with a solution containing 0.4% Triton® X-100 (Sigma-Aldrich), 50 μg/ml propidium iodide (Sigma-Aldrich), and 2 μg/ml DNAse-free RNAse (Roche, Indianapolis, Ind.). The cells were then analyzed for cell cycle perturbation using a FACSCalibur (Becton-Dickinson, Franklin Lakes, N.J.). The CellQuest® program was used to quantitate the distribution of cells in each cell cycle phase: sub-G1(apoptotic cells), G1, S and G2/M.

[3] = system: Calu-6 cells; experiment: Immunofluorescent staining of microtubules (α-tubulin) after drug treatment; format: cell-based, Human; conditions: 1 h, vs control
Experimental: Transfected Calu-6 cells were grown on sterile chamber slides until 60-70% confluent. Cells were then treated with paclitaxel and vincristine for 1 h at 10 nM. Cells were fixed in methanol and processed for staining as previously described (Don et al. (2004) supra) with minor modifications. Fixed cells were stained with α-tubulin (1:400 in 5% FCS/PBS, Sigma) for 30 min followed by Cy2 anti-mouse fluorescent tagged antibody (1:1,000 in 5% FCS/PBS, GE Healthcare). Slides were mounted on a coverslip using DAPI II Counterstain (Vysis Inc., Downers Grove, Ill.). Slides were viewed using a Zeiss Axioplan 2 Immunofluorescence Microscope (Mannheim, Germany) with Image-Pro® Plus 4.1 software (Media Cybernetics, L.P., Silver Spring, Md.).
To assess the effects of βIII downregulation on microtubule organization, immunofluorescence staining was performed on transfected Calu-6 cells as follows. Briefly, siRNA transfected cells were plated in glass chamber slides and allowed to reach 70% confluence. Cells were then treated with 10 nM of paclitaxel or vincristine for 1 hour. Drug was then removed by washing cells with PBS and blocked in 10% FCS/PBS. For dual staining, cells were first labelled with an antibody to class III β-tubulin which was exposed to cells incubated at 37° C. for 30 minutes in a humidified chamber. Following washes in 0.1% Tween 20/PBS at room temperature, the slides were incubated with Cy3 anti-mouse fluorescent-tagged antibody (GE Healthcare) for 40 minutes in a humidified chamber in the dark at room temperature. Following incubation, the slides were washed again in 0.1% Tween 20/PBS. This was then followed by staining with α-tubulin and Cy2 anti-mouse fluorescent tagged antibody (GE Healthcare). Slides were mounted on a coverslip using DAPI II Counterstain (Vysis Inc., Downers Grove, Ill.). Immunofluorescence microscopy was performed and images were captured using a Sensicam Charged Coupled Device camera (PCO Imaging, Kelheim, Bavaria, Germany) and the Image-Pro® Plus 4.1 software (Media Cybernetics, L.P., Silver Spring, Md.).

[4] = system: Calu-6 cells; experiment: Drug-treated clonogenic assay on siRNA-transfected cells; format: cell-based, Human
Experimental: as §1, §2, §3, §4

[5] = system: CCRF-CEM Leukaemia cells; format: cell-based; conditions: for cross-resistance: lowest resistant subline CEM/2ME2-3.6R only; for cross-resistance of the 2ME2-resistant cells: 2ME2-resistant sublines
Source text: The tubulin-binding agent 2-methoxyestradiol (2ME2) binds to β-tubulin near the colchicine-binding site, inhibits microtubule polymerization, and induces mitotic arrest. CCRF-CEM Leukaemia cells that display increasing resistance to 2ME2 were selected, and four of the highly 2ME2 resistant leukaemia sublines were chosen for detailed analysis.

[6] = class II β-tubulin siRNA knockdown vs controls
[7] = class IVb β-tubulin siRNA knockdown vs controls
[8] = βIII-tubulin siRNA silencing vs controls
[9] = NCI-H460, Table 1A, control siRNA-transfected H460 cells, read-out: ID50 (the source's name)
[10] = NCI-H460, Table 1A, mock-transfected H460 cells, read-out: ID50 (the source's name)
[11] = NCI-H460, Table 1A, βII siRNA-transfected H460 cells, read-out: ID50 (the source's name)
[12] = NCI-H460, Table 1B, control siRNA-transfected H460 cells, read-out: ID50 (the source's name)
[13] = NCI-H460, Table 1B, mock-transfected H460 cells, read-out: ID50 (the source's name)
[14] = NCI-H460, Table 1B, βIVb siRNA-transfected H460 cells, read-out: ID50 (the source's name)

| SMILES | change in drug sensitivity (clonogenic survival) [1, 6] | change in drug sensitivity (clonogenic survival) [1, 8] | IC50 [1, 9] [nM] | IC50 [1, 10] [nM] | IC50 [1, 11] [nM] | IC50 [1, 12] [nM] | IC50 [1, 13] [nM] | IC50 [1, 14] [nM] | further results |
| --- | --- | --- | --- | --- | --- | --- | --- | --- | --- |
| COc1cc2c(cc1O)CC[C@@H]1[C@@H]2CC[C@]2(C)[C@@H](O)CC[C@@H]12 [2ME2, 2-methoxyestradiol] | significantly increased sensitivity |  |  |  |  |  |  |  |  |
| CC[C@]1(O)C[C@H]2CN(CCc3c([nH]c4ccccc34)[C@@](C(=O)OC)(c3cc4c(cc3OC)N(C=O)[C@H]3[C@@](O)(C(=O)OC)[C@H](OC(C)=O)[C@]5(CC)C=CCN6CC[C@]43[C@@H]65)C2)C1 [VCR, vincristine] | significantly sensitized | significant increase in sensitivity |  |  |  |  |  |  | IC50 ([1]; NCI-H460, Table 2, 27-mer βIII siRNA Sequence-8 H460 cells, read-out: ID50 ± SEM): 1.68 ± 0.116 nM; IC50 ([1]; NCI-H460, Table 2, 27-mer βIII siRNA Sequence-11 H460 cells, read-out: ID50 ± SEM): 2.95 ± 0.175 nM; IC50 ([1]; NCI-H460, Table 2, Ctrl-1 (27-mer control siRNA) H460 cells, read-out: ID50 ± SEM): 4.25 ± 0.18 nM; IC50 ([1]; NCI-H460, Table 2, mock-transfected H460 cells, read-out: ID50 ± SEM): 3.99 ± 0.158 nM; RS (relative sensitivity) ([1]; 27-mer βIII siRNA Sequence-8 H460 cells): (2.37, <0.0001***); RS (relative sensitivity) ([1]; 27-mer βIII siRNA Sequence-11 H460 cells): (1.34, 0.001**); RS (relative sensitivity) ([1]; Ctrl-1 H460 cells): (0.94, NS); change in drug sensitivity (clonogenic survival) [1, 7]: precipitous drop in surviving colonies; cell cycle profile ([2]; βII siRNA transfectants, 5 nM): increase in the G2/M and sub-G1 populations; cell cycle profile ([2]; βII siRNA transfectants, 40 nM): greater G2/M accumulation; cell cycle profile ([2]; βIVb siRNA transfectants, 5 nM): increase in the G2/M and sub-G1 populations; cell cycle profile ([2]; βIVb siRNA transfectants, 40 nM): failed to undergo G2/M arrest; microtubule morphology ([3]; βII siRNA-transfected Calu-6, 10 nM drug): dramatic disruption of the microtubule cytoskeleton; microtubule morphology ([3]; βIII siRNA-transfected Calu-6, 10 nM drug): extensive disruption of the microtubule cytoskeleton; microtubule morphology ([3]; βIVb siRNA-transfected Calu-6, 10 nM drug): dramatic disruption of the microtubule cytoskeleton; change in drug sensitivity (clonogenic survival) [4, 6]: significantly sensitized; change in drug sensitivity (clonogenic survival) [4, 7]: hypersensitive; cross-resistance [5]: cross-resistance |
| COc1cc([C@@H]2c3cc4c(cc3[C@@H](O[C@@H]3O[C@@H]5CO[C@@H](C)O[C@H]5[C@H](O)[C@H]3O)[C@H]3COC(=O)[C@H]23)OCO4)cc(OC)c1O [VP-16, Etoposide] |  | increased sensitivity |  |  |  |  |  |  |  |
| CC[C@]1(O)C[C@@H]2CN(CCc3c([nH]c4ccccc34)[C@@](C(=O)OC)(c3cc4c(cc3OC)N(C)[C@H]3[C@@](O)(C(=O)OC)[C@H](OC(C)=O)[C@]5(CC)C=CCN6CC[C@]43[C@@H]65)C2)C1 [Vinblastine, vinblastine] |  |  | 0.749 | 0.658 | 0.437 | 0.615 | 0.674 | 0.173 |  |
| CC[C@]12C=CCN3CC[C@@]4(c5cc([C@@]6(C(=O)OC)C[C@@H]7C[C@@H](C(C)(F)F)CN(Cc8c6[nH]c6ccccc86)C7)c(OC)cc5N(C)[C@H]4[C@@](O)(C(=O)OC)[C@@H]1OC(C)=O)[C@@H]32 [Vinflunine, vinflunine] |  |  | 29.9 | 31 | 19 | 30.5 | 31.7 | 19.2 |  |
| CCC1=C[C@@H]2CN(C1)Cc1c([nH]c3ccccc13)[C@@](C(=O)OC)(c1cc3c(cc1OC)N(C)[C@H]1[C@@](O)(C(=O)OC)[C@H](OC(C)=O)[C@]4(CC)C=CCN5CC[C@]31[C@@H]54)C2 [Vinorelbine, vinorelbine] |  | enhanced sensitivity | 5.78 | 6.34 | 4.04 | 6.52 | 6.95 | 5.43 | change in drug sensitivity (clonogenic survival) [4, 8]: enhanced sensitivity |
| COc1cc2c(c(OC)c1OC)-c1ccc(OC)c(=O)cc1[C@@H](NC(C)=O)CC2 [colchicine] | significantly increased sensitivity |  |  |  |  |  |  |  | cross-resistance of the 2ME2-resistant cells [5]: not cross resistant; cross-resistance [5]: cross-resistance |
| COc1cccc2c1C(=O)c1c(O)c3c(c(O)c1C2=O)C[C@@](O)(C(=O)CO)C[C@@H]3O[C@H]1C[C@H](N)[C@H](O)[C@H](C)O1 [doxorubicin, doxorubicin hydrochloride] |  | increased sensitivity |  |  |  |  |  |  |  |
| C/C(=C\c1csc(C)n1)[C@@H]1C[C@@H]2O[C@]2(C)CCC[C@H](C)[C@H](O)[C@@H](C)C(=O)C(C)(C)[C@@H](O)CC(=O)O1 [epothilone B] | no significant change in drug sensitivity | increased the sensitivity |  |  |  |  |  |  | change in drug sensitivity (clonogenic survival) [1, 7]: significantly more resistant; change in drug sensitivity (clonogenic survival) [4, 8]: increased the sensitivity; cross-resistance of the 2ME2-resistant cells [5]: hypersensitive |
